Reference: US20150164895A1, “DETERMINING SENSITIVITY OF CELLS TO B-RAF INHIBITOR TREATMENT BY DETECTING KRAS MUTATION AND RTK EXPRESSION LEVELS” (GENENTECH, INC., priority 2009, published 2015)
Several values for one entry are separate records, joined by “and”; a condition that tells them apart may be missing. Equal values may be shown once.

How the values were obtained:
[1] = system: phospho-MEK in B-RAF V600E mutant cell lines; assay: Phospho-MEK MSD assay, basal and EGF-stimulated; format: cell-based; details: basal and EGF-stimulated (20 ng/ml EGF); compared with PLX4720
Method: (A) Cells were treated with […] compound in serum free media for 1 hour. For stimulation 20 ng/ml EGF was added for 5 min before cells were lysed. Lysates were transferred to an MSD plate where phospho- and total MEK levels were measured. […] Cells were dosed with indicated inhibitors, either alone or in combination in the presence of 20 ng/ml EGF in the media.

[2] = molecular target: B-Raf^V600E (Homo sapiens, UniProt P15056, V600E); details: physiological [ATP]
[3] = system: Venus-C-RAF / CFP-K-RAS in HEK293T cells; assay: C-RAF plasma membrane translocation, live cell confocal imaging; format: cell-based; design: dose or concentration left out as unconfirmed
Description: Aliquots of the membrane and cytosolic fractions were immunoblotted with the indicated antibodies. (B) HEK293T cells were transiently transfected with Venus-C-RAF (green), CFP-K-RAS (red) and mCherry-H2B (blue).

[4] = system: lung tumor xenografts; assay: Experiment H327: growth in lung tumor xenografts after dosing with B-RAF inhibitor; format: in vivo, mice; details: H327-2, LXFA 1041/9N4, 100 mg/kg/day po Days 0-20; for Absolute body weight, Median / Relative body weight, Median: group median n 10; for Absolute tumor volume: (a*b*b)/2, Median / Relative tumor volume, Median: group median n 20; for Relative tumor volume: individual tumor
Description: FIGS. 10-18 depict growth in lung tumor xenografts after dosing with GDC-0879.
The data are shown below, and in FIGS. 10-14 for Experiment H331 and FIGS. 15-18 for Experiment H327.

[5] = study day 3, individual animal, listed as G-026887
[6] = study day 7, individual animal, listed as G-026887
[7] = study day 10, individual animal, listed as G-026887
[8] = study day 14, individual animal, listed as G-026887

B-Raf^V600E, sequence (P15056 whole entry V600E): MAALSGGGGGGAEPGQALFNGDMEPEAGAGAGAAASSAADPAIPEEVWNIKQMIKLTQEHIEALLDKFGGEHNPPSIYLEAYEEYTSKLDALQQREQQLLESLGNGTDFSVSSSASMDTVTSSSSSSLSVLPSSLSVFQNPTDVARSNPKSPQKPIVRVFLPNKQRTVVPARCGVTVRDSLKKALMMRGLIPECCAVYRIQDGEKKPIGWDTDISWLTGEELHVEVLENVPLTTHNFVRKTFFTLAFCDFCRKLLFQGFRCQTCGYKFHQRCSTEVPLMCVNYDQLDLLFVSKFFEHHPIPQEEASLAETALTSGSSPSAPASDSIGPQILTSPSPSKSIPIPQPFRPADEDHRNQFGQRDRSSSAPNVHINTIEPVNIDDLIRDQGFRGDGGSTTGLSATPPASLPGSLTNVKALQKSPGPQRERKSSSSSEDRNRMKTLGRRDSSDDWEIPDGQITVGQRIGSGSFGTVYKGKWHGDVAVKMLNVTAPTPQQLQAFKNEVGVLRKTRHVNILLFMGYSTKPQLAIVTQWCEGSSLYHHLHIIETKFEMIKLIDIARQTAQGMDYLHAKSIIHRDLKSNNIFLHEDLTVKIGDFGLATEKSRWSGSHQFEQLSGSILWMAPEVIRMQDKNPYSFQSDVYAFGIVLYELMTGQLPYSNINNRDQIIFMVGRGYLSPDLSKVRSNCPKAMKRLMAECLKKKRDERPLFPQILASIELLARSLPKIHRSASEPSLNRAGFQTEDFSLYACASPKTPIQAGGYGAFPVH

OCCn1cc(-c2ccc3c(c2)CC/C3=N\O)c(-c2ccncc2)n1 [GDC-0879, 2-{4-[(1E)-1-(hydroxyimino)-2,3-dihydro-1H-inden-5-yl]-3-(pyridine-4-yl)-1H-pyrazol-1-yl}ethan-1-ol]
knocking down phospho-MEK levels [1]: more effective in knocking down phospho-MEK levels | potency in biochemical enzyme assay [2]: maintains effective potency | Venus-tagged C-RAF membrane translocation [3]: co-localizes with CFP-KRAS on the plasma membrane | Survival time ([4]; individual animal, listed as G-026887): >20 days (14×) and >21 days (6×) | Absolute body weight, Median ([4]; study day 0): 25.1 g | Relative body weight, Median ([4]; study day 0): 100.0% | Absolute tumor volume: (a*b*b)/2, Median ([4]; study day 0): 88.5 mm3 | Relative tumor volume, Median ([4]; study day 0): 100.0% | Relative body weight ([4]; study day 0, individual animal): 100.0% | Absolute body weight ([4]; study day 0, individual animal, listed as G-026887): 25.4 g and 28.6 g and 24.5 g (2×) and 24.0 g and 25.1 g and 29.8 g and 31.5 g and 25.0 g and 23.6 g | Relative tumor volume ([4]; study day 0): 100.0% | Absolute body weight, Median ([4]; study day 3): 25.3 g | Relative body weight, Median ([4]; study day 3): 99.2% | Absolute tumor volume: (a*b*b)/2, Median ([4]; study day 3): 139.8 mm3 | Relative tumor volume, Median ([4]; study day 3): 165.4% | Absolute body weight [4, 5]: 25.6 g and 29.4 g and 24.6 g and 23.8 g and 23.6 g and 25.1 g and 29.3 g and 30.4 g and 25.4 g and 22.9 g | Relative body weight [4, 5]: 100.8% and 102.8% and 100.4% and 97.1% and 98.3% (2×) and 100.0% and 96.5% and 101.6% and 97.0% | Relative tumor volume ([4]; study day 3, listed as G-026887): 193.9% and 208.9% and 154.7% and 187.7% and 202.6% and 157.6% and 110.0% and 160.2% and 138.1% and 194.2% and 138.9% and 172.0% and 178.9% and 185.0% and 157.3% | Absolute body weight, Median ([4]; study day 7): 25.7 g | Relative body weight, Median ([4]; study day 7): 101.4% | Absolute tumor volume: (a*b*b)/2, Median ([4]; study day 7): 228.0 mm3 | Relative tumor volume, Median ([4]; study day 7): 258.8% | Absolute body weight [4, 6]: 25.9 g and 30.9 g and 25.2 g and 24.3 g and 24.4 g and 25.4 g and 29.8 g and 30.5 g and 26.3 g and 22.6 g | Relative body weight [4, 6]: 102.0% and 108.0% and 102.9% and 99.2% and 101.7% and 101.2% and 100.0% and 96.8% and 105.2% and 95.8% | Relative tumor volume ([4]; study day 7, listed as G-026887): 452.1% and 329.8% and 300.6% and 260.9% and 376.4% and 256.7% and 340.1% and 324.4% and 232.6% and 248.9% and 223.2% and 293.8% and 281.8% and 209.2% | Absolute body weight, Median ([4]; study day 10): 25.5 g | Relative body weight, Median ([4]; study day 10): 100.5% | Absolute tumor volume: (a*b*b)/2, Median ([4]; study day 10): 305.5 mm3 | Relative tumor volume, Median ([4]; study day 10): 388.4% | Absolute body weight [4, 7]: 25.5 g (2×) and 30.4 g and 24.9 g and 24.3 g and 23.8 g and 30.0 g and 30.6 g and 26.1 g and 22.0 g | Relative body weight [4, 7]: 100.4% and 106.3% and 101.6% (2×) and 99.2% (2×) and 100.7% and 97.1% and 104.4% and 93.2% | Relative tumor volume ([4]; study day 10, listed as G-026887): 586.9% and 487.4% and 508.8% and 376.4% and 414.0% and 411.7% and 522.2% and 562.3% and 323.9% and 342.2% and 332.9% and 385.0% and 391.8% and 264.6% | Absolute body weight, Median ([4]; study day 14): 25.6 g | Relative body weight, Median ([4]; study day 14): 101.4% | Absolute tumor volume: (a*b*b)/2, Median ([4]; study day 14): 541.3 mm3 | Relative tumor volume, Median ([4]; study day 14): 605.0% | Absolute body weight [4, 8]: 25.1 g and 30.7 g and 24.8 g and 24.6 g and 24.4 g and 26.1 g and 31.2 g and 30.4 g and 26.8 g and 22.7 g | Relative body weight [4, 8]: 98.8% and 107.3% and 101.2% and 100.4% and 101.7% and 104.0% and 104.7% and 96.5% and 107.2% and 96.2%
